From the supplement of paper PMC9763283
± gives the standard deviation of the averaged measurements.

Assays:
Assay in all cases: area under growth-rate inhibition curve (AUC GRI) (dimensionless (GR-based AUC)); higher = less growth inhibition
Settings in all cases: exposure time: 72 h; concentrations: 0.1, 1, 10 uM
SKBR3-LTR = system: SKBR3-LTR
Outline: (§1)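 Nuclear counts from Hoechst 33342- or DAPI-stained images were used to estimate the area under the growth-rate inhibition curve, with growth corrected by reference to untreated and DMSO-treated plates and starting plates. The six breast cancer cell line models, comprising two triple-negative lines and parental and drug-combination-resistant HER2+ lines, were treated with compound at 0.1, 1 or 10 µM for 72 h. Data came from 2 biological replicates, using Day 0 and Day 3 plates.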

MDA-MB-468 = system: MDA-MB-468
Outline: as §1

MDA-MB-231 = system: MDA-MB-231
Outline: as §1

BT474-P = system: BT474-P
Outline: as §1

SKBR3-P = system: SKBR3-P
Outline: as §1

BT474-LTR = system: BT474-LTR
Outline: as §1

Row | Compound | area under growth-rate inhibition curve (SKBR3-LTR) | area under growth-rate inhibition curve (MDA-MB-468) | area under growth-rate inhibition curve (MDA-MB-231) | area under growth-rate inhibition curve (BT474-P) | area under growth-rate inhibition curve (SKBR3-P) | area under growth-rate inhibition curve (BT474-LTR)
1 | CN1C2CCC1CC(OC(=O)C(CO)c1ccccc1)C2 (stereo unspecified) [Hyoscyamine] | 1.04 | 1.04 | 1.03 | 1.06 | 1.04 | 1.13
2 | NCCCCCNCC12CC3CC(CC(C3)C1)C2.[Br-].[Br-].[H+].[H+] [IEM 1754 dihydrobroMide] | 1.04 | 1.03 | 1.04 | 1.01 | 1.03 | 1.07
3 | CC(C(O)c1ccc(O)cc1)N1CCC(Cc2ccccc2)CC1.CC(C(O)c1ccc(O)cc1)N1CCC(Cc2ccccc2)CC1.O=C(O)C(O)C(O)C(=O)O (stereo unspecified) [Ifenprodil Tartrate] | 0.997 | 0.985 | 1.04 | 1.02 | 0.985 | 1.01
4 | COc1cc(C(C)=O)ccc1OCCCN1CCC(c2noc3cc(F)ccc23)CC1 [Iloperidone] | 1.07 | 1.03 | 1.04 | 0.979 | 0.991 | 1.02
5 | CCc1cc2c(cc1CC)CC(NC[C@H](O)c1ccc(O)c3[nH]c(=O)ccc13)C2.O=C(O)/C=C\C(=O)O [Indacaterol Maleate] | 1.01 | 0.93 | 0.903 | 0.978 | 0.955 | 1
6 | CCCCC1=NC2(CCCC2)C(=O)N1Cc1ccc(-c2ccccc2-c2nn[nH]n2)cc1 [Irbesartan] | 1.04 ± 0.036 | 1.04 ± 0.023 | 1.042 ± 0.002 | 1.032 ± 0.0013 | 1.03 ± 0.019 | 1.063 ± 0.0091
7 | CC(C)NCC(O)c1ccc(O)c(O)c1.[Cl-].[H+] (stereo unspecified) [Isoprenaline HCl] | 1.03 | 1.04 | 1.05 | 1.04 | 0.995 | 1.08
8 | COc1cc2c(cc1OC)CC(=O)N(CCCN(C)CC1Cc3cc(OC)c(OC)cc31)CC2.Cl (stereo unspecified) [Ivabradine HCl] | 1.07 | 1.01 | 1.01 | 1.02 | 1.03 | 1.04
9 | CCc1ccc(OCc2ccccc2C(=O)Nc2ccc3nc(C)cc(N)c3c2)cc1.[Cl-].[H+] [JTC-801] | 0.8 | 0.718 | 0.713 | 0.751 | 0.778 | 0.744
10 | CN1CCC(=C2c3ccccc3CC(=O)c3sccc32)CC1.O=C(O)/C=C/C(=O)O [Ketotifen Fumarate] | 1.1 | 1 | 0.939 | 1.02 | 1.01 | 1.07
11 | N[C@@H](Cc1ccc(O)c(O)c1)C(=O)O [L-DOPA] | 1.05 | 1.05 | 1.05 | 0.987 | 1.03 | 1.04
12 | Cc1c(C(=O)Nc2ccc(N3CC(C)OC(C)C3)nc2)cccc1-c1ccc(OC(F)(F)F)cc1 (stereo unspecified) [LDE225 (NVP-LDE225,Erismodegib)] | 1.03 | 0.915 | 0.921 | 0.909 | 0.981 | 1.04
13 | CC(CCc1ccccc1)NCC(O)c1ccc(O)c(C(N)=O)c1.Cl (stereo unspecified) [Labetalol HCl] | 1.06 | 1.04 | 1.06 | 1.1 | 1.01 | 1.07
14 | O=C(CS(=O)Cc1ccco1)NC/C=C\COc1cc(CN2CCCCC2)ccn1 (stereo unspecified) [Lafutidine] | 1.06 | 1.02 | 1.03 | 1.02 | 0.987 | 1.1
15 | OC[C@H](O)CN1CCN(c2ccccc2)CC1 [Levodropropizine] | 0.975 | 1.03 | 0.999 | 1.01 | 1.02 | 0.995
16 | CCN1CCCC1CNC(=O)c1cc(S(N)(=O)=O)ccc1OC (stereo unspecified) [Levosulpiride] | 1.05 | 1.03 | 1.01 | 1.02 | 1.01 | 1.06
17 | CCN(CC)CC(=O)Nc1c(C)cccc1C [Lidocaine] | 1.08 | 1.05 | 1.03 | 1.04 | 1.03 | 1.11
18 | NCCCC[C@H](N[C@@H](CCc1ccccc1)C(=O)O)C(=O)N1CCC[C@H]1C(=O)O.O.O [Lisinopril] | 1.08 | 1 | 1.01 | 1.06 | 1.02 | 1.1
19 | CN(C)C(=O)C(CCN1CCC(O)(c2ccc(Cl)cc2)CC1)(c1ccccc1)c1ccccc1.[Cl-].[H+] [Loperamide HCl] | 1 | 0.911 | 1.03 | 0.882 | 0.943 | 0.94
20 | C[C@H]1CNCCc2ccc(Cl)cc21.[Cl-].[H+] [Lorcaserin HCl] | 1.03 | 1.03 | 1.02 | 1.06 | 1.03 | 1.09
21 | CN1CCN(C2=Nc3ccccc3Oc3ccc(Cl)cc32)CC1 [Loxapine] | 1.06 | 1.03 | 1.04 | 0.995 | 1.02 | 1.03

Row | Compound | area under growth-rate inhibition curve (SKBR3-LTR) | area under growth-rate inhibition curve (MDA-MB-468) | area under growth-rate inhibition curve (MDA-MB-231) | area under growth-rate inhibition curve (BT474-P) | area under growth-rate inhibition curve (SKBR3-P) | area under growth-rate inhibition curve (BT474-LTR)
22 | N#Cc1cc2cc(CN3CCC(Nc4ncnc5sc(CC(F)(F)F)cc45)CC3)ccc2[nH]1 [MI-136] | 1.01 | 0.834 | 0.931 | 0.833 | 0.895 | 0.906
23 | C[C@]12N[C@H](Cc3ccccc31)c1ccccc12 [MK-801 (Dizocilpine)] | 1.06 | 1.05 | 1.03 | 1.03 | 0.998 | 1.09
24 | Cc1cccc(C#Cc2ccccc2)n1 [MPEP] | 1.05 | 1.03 | 1.05 | 1.03 | 0.999 | 1.1
25 | S=C=Nc1cccc(NC(=S)NCCCCNC(=S)Nc2cccc(N=C=S)c2)c1 [MRS 2578] | 1.07 | 1.03 | 1.02 | 1.02 | 1.02 | 1.08
26 | CCCNS(=O)(=O)Nc1ncnc(OCCOc2ncc(Br)cn2)c1-c1ccc(Br)cc1 [Macitentan] | 1.02 | 1.02 | 1.02 | 0.957 | 1.02 | 1.01
27 | CNCCCC12CCC(c3ccccc31)c1ccccc12.[Cl-].[H+] [Maprotiline HCl] | 1.02 | 0.96 | 0.967 | 0.984 | 0.982 | 1.02
28 | Cc1cccc(C(C)c2c[nH]cn2)c1C.Cl (stereo unspecified) [Medetomidine HCl] | 0.995 | 1.02 | 1.01 | 0.995 | 1.03 | 0.982
29 | CC(=O)O[C@]1(C(C)=O)CC[C@H]2[C@@H]3C[C@H](C)C4=CC(=O)CC[C@]4(C)[C@H]3CC[C@@]21C [Medroxyprogesterone acetate] | 1.01 | 1 | 1.03 | 0.945 | 0.953 | 1.02
30 | CC(=O)O[C@]1(C(C)=O)CC[C@H]2[C@@H]3C=C(C)C4=CC(=O)CC[C@]4(C)[C@H]3CC[C@@]21C [Megestrol Acetate] | 1.09 | 1.01 | 1 | 0.978 | 0.968 | 1.09
31 | CC12CC3CC(C)(C1)CC(N)(C3)C2.Cl [Memantine HCl] | 0.989 | 0.982 | 0.997 | 1 | 1.03 | 0.981
32 | COc1ccc(CN(CCN(C)C)c2ccccn2)cc1.O=C(O)/C=C\C(=O)O [Mepyramine maleate] | 1.05 | 1.05 | 1.05 | 1.03 | 1.05 | 1.06
33 | C[N+]1(C)C2CC(OC(=O)C(CO)c3ccccc3)CC1C1OC12.[Br-] (stereo unspecified) [Methscopolamine] | 1.04 | 1.04 | 1.03 | 1.05 | 1.02 | 1.1
34 | CC[C@@H](CO)NC(=O)[C@@H]1C=C2c3cccc4[nH]cc(c34)C[C@H]2N(C)C1.O=C(O)/C=C\C(=O)O [Methylergometrine maleate] | 1.05 | 1.06 | 1.03 | 1.01 | 1.04 | 1.05
35 | CCN(CC)CCNC(=O)c1cc(Cl)c(N)cc1OC.Cl [MetoclopraMide HCl] | 1.04 | 1.01 | 1.05 | 1.04 | 1.02 | 1.09
36 | COCCc1ccc(OCC(O)CNC(C)C)cc1.O=C(O)C(O)C(O)C(=O)O (stereo unspecified) [Metoprolol Tartrate] | 0.997 | 0.98 | 1.01 | 0.987 | 0.999 | 1.01
37 | CN1CCN2c3ccccc3Cc3ccccc3C2C1.[Cl-].[H+] (stereo unspecified) [Mianserin HCl] | 1.09 | 1.06 | 1.03 | 1.07 | 1.02 | 1.12
38 | CC#C[C@]1(O)CC[C@H]2[C@@H]3CCC4=CC(=O)CCC4=C3[C@@H](c3ccc(N(C)C)cc3)C[C@@]21C [Mifepristone] | 0.998 | 0.989 | 1.03 | 1 | 0.962 | 1.02
39 | Cc1[nH]c(=O)c(C#N)cc1-c1ccncc1 [Milrinone] | 1.07 | 1.03 | 1.04 | 1.03 | 1.02 | 1.05
40 | Nc1nc(CC(=O)Nc2ccc(CCNCC(O)c3ccccc3)cc2)cs1 (stereo unspecified) [Mirabegron] | 1.07 | 1.01 | 1.02 | 1.04 | 1.02 | 1.11
41 | CCOc1cc(N)c(Cl)cc1C(=O)NCC1CN(Cc2ccc(F)cc2)CCO1.O=C(O)CC(O)(CC(=O)O)C(=O)O (stereo unspecified) [Mosapride Citrate] | 1.02 | 1.02 | 1.03 | 1.04 | 1.01 | 1.09
